Experimental findings from US7338958B2, “Sulfoximine-substituted pyrimidines as CDK-and/or VEGF inhibitors, their production and use as pharmaceutical agents” (Schering AG, priority 2003, dated 2008) are described below.

The subject of data set [1] is MCF7, hormone-independent human breast cancer cells. Kind of data set: Proliferation assay, MCF7. In kind it is cell-based. To be noted: MCF7, 96 h, 4 days incubation, crystal violet. The method, boiled down: (§1)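 Cells seeded ~5000/well, treated after 24 h with 0.01-30 μM compound (0.5% DMSO) for 4 days. Glutaraldehyde-fixed cells stained with crystal violet, absorbance at 595 nm; growth expressed as percent, normalized to zero-point plate (0%) and untreated cells (100%).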

The test system of data set [2] is NCI-H460, human non-small-cell lung cancer cells. Kind of data set: Proliferation assay, H460. In kind it is cell-based. The conditions noted are these: NCI-H460, 96 h, 4 days incubation, crystal violet. The text has this:
(§2) Cultivated human tumor cells (MCF7, hormone-independent human breast cancer cells, related to ATCC HTB22; NCI-H460, human non-small-cell lung cancer cells, ATCC HTB-177, HCT 116, human colon cancer cells, ATCC CCL-247; DU 145, hormone-independent human prostate cancer cells, ATCC HTB-81; MaTu-MDR, hormone-independent, multiple pharmaceutical agent-resistant human breast cancer cells, EPO-GmbH, Berlin) were flattened out at a density of about 5000 cells/measuring point, depending on the growth rate of the respective cells, in a 96-well multititer plate in 200 μl of the corresponding growth medium. After 24 hours, the cells of one plate (zero-point plate) were colored with crystal violet (see below), while the medium of the other plates was replaced by fresh culture medium (200 μl), to which the test substances were added in various concentrations (0 μm, as well as in the range of 0.01-30 μm; the final concentration of the solvent dimethyl sulfoxide was 0.5%). The cells were incubated for 4 days in the presence of test substances. The cell proliferation was determined by coloring the cells with crystal violet: the cells were fixed by adding 20 μl/measuring point of an 11% glutaric aldehyde solution for 15 minutes at room temperature. After three washing cycles of the fixed cells with water, the plates were dried at room temperature. The cells were colored by adding 100 μl/measuring point of a 0.1% crystal violet solution (the pH was set at 3 by adding acetic acid). After three washing cycles of the colored cells with water, the plates were dried at room temperature. The dye was dissolved by adding 100 μl/measuring point of a 10% acetic acid solution. The extinction was determined by photometry at a wavelength of 595 nm. The change of cell growth, in percent, was calculated by normalization of the measured values to the extinction values of the zero-point plate (=0%) and the extinction of the untreated (0 μm) cells (=100%).

The test system of data set [3] is DU 145, hormone-independent human prostate cancer cells. Kind of data set: Proliferation assay, DU145. In kind it is cell-based. To be noted: DU-145, 96 h, 4 days incubation, crystal violet. In a few lines: as §1
Another data set has as its system MaTu-ADR. In words: Proliferation assay, MaTu-ADR. It counts as cell-based. To be noted: Homo sapiens, 96 h, MaTu-ADR cells, 4 days incubation, crystal violet.
Excerpt: as §2

For another data set, the target named is T1, CDK2/CycE (Homo sapiens, UniProt P24941).
T1 construct: GST; purchased ProQinase GmbH, Freiburg; host or cells: baculovirus-infected insect cells (Sf9)
Kind of data set: CDK2/CycE Kinase Assay. To be noted: histone IIIS substrate, 33P-ATP, 15 minutes at 22° C. In kind it is biochemical. In a few lines: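 Recombinant GST-tagged CDK2/CycE from Sf9 cells (50 ng/point) was incubated with compound (0.01-100 μM) for 15 min at 22° C, pH 8.0, with 0.5 μM ATP plus ^33P-γ-ATP and histone IIIS as substrate, in 12.5% DMSO. Incorporated ^33P was counted after filter binding and washing.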

For the next data set, the target named is T2, CDK1/CycB (Homo sapiens, UniProt P06493).
T2 construct: GST; purchased ProQinase GmbH, Freiburg; host or cells: baculovirus-infected insect cells (Sf9)
Kind of data set: CDK1/CycB Kinase Assay. It counts as biochemical. To be noted: histone IIIS substrate, 33P-ATP, 15 minutes at 22° C.

The target of data set [4] is T3, VEGF receptor tyrosine kinase-2 (Homo sapiens, UniProt P35968).
T3 construct: GST; made in house; host or cells: baculovirus-infected insect cells (Sf9)
Kind of data set: VEGF Receptor-2 Kinase Assay. The conditions noted are these: poly-(Glu4Tyr) substrate, 33P-ATP, 10 minutes at 22° C.; read-out: VEGF-R2 IC50. It counts as biochemical.

Counter-ions that a name gives are not always drawn.

The melting point is the temperature, or range, at which the solid turns liquid. One may read the IC50 as the concentration at which inhibition is half-maximal.

T3 sequence (P35968 20-1356): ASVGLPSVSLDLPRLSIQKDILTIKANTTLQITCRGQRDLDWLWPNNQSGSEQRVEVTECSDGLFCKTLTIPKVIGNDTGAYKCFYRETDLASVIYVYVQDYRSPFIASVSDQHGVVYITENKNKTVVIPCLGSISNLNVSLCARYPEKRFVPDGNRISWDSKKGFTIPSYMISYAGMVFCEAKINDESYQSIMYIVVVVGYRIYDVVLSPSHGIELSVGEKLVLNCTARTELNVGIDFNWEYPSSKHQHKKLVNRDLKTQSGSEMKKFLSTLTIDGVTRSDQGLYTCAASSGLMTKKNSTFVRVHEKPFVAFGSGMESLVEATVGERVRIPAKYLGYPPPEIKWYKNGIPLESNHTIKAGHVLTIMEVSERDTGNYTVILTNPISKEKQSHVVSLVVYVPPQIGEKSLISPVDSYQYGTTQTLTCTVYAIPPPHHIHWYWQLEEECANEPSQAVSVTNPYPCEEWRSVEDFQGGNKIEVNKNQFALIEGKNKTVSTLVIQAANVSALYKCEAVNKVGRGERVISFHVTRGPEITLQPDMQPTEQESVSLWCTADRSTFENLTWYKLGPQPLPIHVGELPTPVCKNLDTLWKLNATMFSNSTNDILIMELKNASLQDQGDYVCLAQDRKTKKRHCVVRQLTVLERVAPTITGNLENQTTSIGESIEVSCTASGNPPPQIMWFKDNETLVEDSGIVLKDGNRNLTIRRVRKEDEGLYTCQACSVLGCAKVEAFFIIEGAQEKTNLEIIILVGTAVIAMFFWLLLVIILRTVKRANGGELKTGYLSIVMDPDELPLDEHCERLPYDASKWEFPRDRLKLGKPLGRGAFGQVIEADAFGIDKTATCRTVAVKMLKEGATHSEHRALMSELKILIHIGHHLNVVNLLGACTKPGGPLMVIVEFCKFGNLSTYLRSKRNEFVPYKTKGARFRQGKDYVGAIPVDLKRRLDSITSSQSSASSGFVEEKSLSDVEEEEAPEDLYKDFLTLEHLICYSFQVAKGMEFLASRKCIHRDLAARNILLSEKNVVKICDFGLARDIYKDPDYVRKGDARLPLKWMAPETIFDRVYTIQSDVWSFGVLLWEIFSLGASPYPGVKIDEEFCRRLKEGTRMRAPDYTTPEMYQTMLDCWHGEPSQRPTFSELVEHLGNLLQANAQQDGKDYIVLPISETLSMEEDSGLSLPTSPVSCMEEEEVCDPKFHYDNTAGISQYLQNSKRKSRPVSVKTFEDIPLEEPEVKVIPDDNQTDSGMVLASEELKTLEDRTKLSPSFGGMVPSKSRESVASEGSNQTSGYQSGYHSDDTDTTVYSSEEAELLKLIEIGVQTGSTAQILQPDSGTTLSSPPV
T2 sequence (P06493 whole entry): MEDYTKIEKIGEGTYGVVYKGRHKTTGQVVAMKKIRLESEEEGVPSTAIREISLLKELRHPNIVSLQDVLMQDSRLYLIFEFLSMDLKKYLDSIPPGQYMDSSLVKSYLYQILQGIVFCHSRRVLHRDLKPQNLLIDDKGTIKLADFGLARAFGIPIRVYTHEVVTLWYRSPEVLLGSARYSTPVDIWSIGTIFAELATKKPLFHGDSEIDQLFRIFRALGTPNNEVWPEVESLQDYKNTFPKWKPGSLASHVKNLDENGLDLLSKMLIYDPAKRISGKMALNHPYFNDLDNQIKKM
T2 sequence (P14635 whole entry partner): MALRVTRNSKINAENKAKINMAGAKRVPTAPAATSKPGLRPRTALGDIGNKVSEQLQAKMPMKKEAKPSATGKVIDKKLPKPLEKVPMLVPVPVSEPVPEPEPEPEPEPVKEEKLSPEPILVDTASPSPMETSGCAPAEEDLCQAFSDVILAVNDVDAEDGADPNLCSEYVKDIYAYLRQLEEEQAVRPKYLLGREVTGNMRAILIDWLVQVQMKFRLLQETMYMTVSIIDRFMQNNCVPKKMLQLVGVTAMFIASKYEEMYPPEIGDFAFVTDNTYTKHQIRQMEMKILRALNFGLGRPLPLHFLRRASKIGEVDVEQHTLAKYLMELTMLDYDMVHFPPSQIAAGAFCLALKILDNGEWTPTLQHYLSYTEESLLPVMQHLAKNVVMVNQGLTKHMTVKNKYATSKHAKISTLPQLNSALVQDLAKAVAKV

`C[C@H](CO)Nc1nc(Nc2ccc(S(C)(=O)=NS(=O)(=O)CC[Si](C)(C)C)cc2)ncc1Br` (mixture of isomers) [Example 2.1, (RS)-S-[4-({5-bromo-4-[(R)-(2-hydroxy-1-methylethyl)amino]pyrimidin-2-yl}amino)phenyl]-S-methyl-N-[2-(trimethylsilyl)ethylsulfonyl]sulfoximide] registered a melting point of 194 to 197 °C.
With `C[C@H](CO)Nc1nc(Nc2ccc(S(=O)(CC3CC3)=NS(=O)(=O)CC[Si](C)(C)C)cc2)ncc1Br` (mixture of isomers) [Example 1.7, (RS)-S-[4-({5-bromo-4-[(R)-(2-hydroxy-1-methylethyl)amino]pyrimidin-2-yl}amino)phenyl]-S-(cyclopropylmethyl)-N-[2-(trimethylsilyl)ethylsulfonyl]sulfoximide], the melting point is 195 °C (dec.).
Still for that read-out and setting: the value for `C[C@@H](Nc1nc(Nc2ccc(S(=O)(=NS(=O)(=O)CC[Si](C)(C)C)C3CCCC3)cc2)ncc1Br)C(C)(C)O` (mixture of isomers) [Example 1.10, (RS)-S-[4-({5-bromo-4-[(R)-(2-hydroxy-1,2-dimethylpropyl)amino]pyrimidin-2-yl}amino)phenyl]-S-cyclopentyl-N-[2-(trimethylsilyl)ethylsulfonyl]sulfoximide] [listing 1 of 2 here] was 200 to 201 °C.
On to `CCOC(=O)N=S(C)(=O)c1ccc(Nc2ncc(Br)c(N[C@H](C)C(C)(C)O)n2)cc1C` (mixture of isomers) [Example 1.37, (RS)-S-[4-({5-bromo-4-[(R)-(2-hydroxy-1,2-dimethylpropyl)amino]pyrimidin-2-yl}amino)-2-methylphenyl]-N-(ethoxycarbonyl)-S-methyl sulfoximide], for which the IC50 in data set [1] is 0.17 µM; in data set [2], less than 0.1 µM; in data set [3], 0.16 µM; in the data set with MaTu-ADR it was 0.3 µM; at CDK2/CycE it was 0.048 µM; on CDK1/CycB, 0.063 µM. In addition, the IC50 in data set [4] is 0.057 µM.
`CCOC(=O)N=S(C)(=O)c1ccc(Nc2ncc(Br)c(N[C@H](C)[C@@H](C)O)n2)cc1` (mixture of isomers) [Example 1.32, (RS)-S-[4-({5-bromo-4-[(1R,2R)-(2-hydroxy-1-methylpropyl)amino]pyrimidin-2-yl}amino)phenyl]-N-(ethoxycarbonyl)-S-methyl sulfoximide]: the IC50 in data set [1] came out at 0.19 µM; in data set [2] it was 0.18 µM; in data set [3] it was 0.3 µM; in the data set on MaTu-ADR, 0.6 µM; on CDK2/CycE, 0.012 µM; against CDK1/CycB, 0.016 µM. Besides, in data set [4], the IC50 worked out at 0.056 µM.
Take `Cc1cc(Nc2ncc(Br)c(N[C@H](C)[C@@H](C)O)n2)ccc1S(C)(=N)=O` (mixture of isomers) [Example 1.60, (RS)-S-[4-({5-bromo-4-[(1R,2R)-(2-hydroxy-1-methylpropyl)amino]pyrimidin-2-yl}amino)-2-methylphenyl]-S-methyl sulfoximide]: the IC50 in data set [1] worked out at 0.06 µM; in data set [2] it was 0.04 µM; in data set [3], 0.04 µM; in the data set with MaTu-ADR, 0.04 µM; on CDK2/CycE, 0.004 µM; against CDK1/CycB, 0.004 µM. For the same compound, in data set [4], the IC50 worked out at 0.039 µM.
Compound `C[C@@H](Nc1nc(Nc2ccc(S(=N)(=O)C3CCCC3)cc2)ncc1Br)C(C)(C)O` (mixture of isomers) [Example 1.11, (RS)-S-[4-({5-bromo-4-[(R)-(2-hydroxy-1,2-dimethylpropyl)amino]pyrimidin-2-yl}amino)phenyl]-S-cyclopentylsulfoximide] returned a melting point of 194 to 196 °C.
As for `CCOC(=O)N=S(C)(=O)c1ccc(Nc2ncc(Br)c(O[C@H](C)[C@@H](C)O)n2)cc1` (mixture of isomers) [Example 1.40, (RS)-S-[4-({5-bromo-4-[(1R,2R)-2-hydroxy-1-methylpropoxy]pyrimidin-2-yl}amino)phenyl]-N-(ethoxycarbonyl)-S-methyl sulfoximide], the IC50 worked out at 0.11 µM in data set [1]; 0.17 µM in data set [2]; 0.18 µM in data set [3]; 0.3 µM in the data set on MaTu-ADR; 0.014 µM against CDK2/CycE; 0.021 µM on CDK1/CycB. The IC50 in data set [4] stood at 0.11 µM.
In the case of `CCOC(=O)N=S(C)(=O)c1ccc(Nc2ncc(Br)c(N[C@H](C)[C@@H](C)O)n2)cc1C` (mixture of isomers) [Example 1.38, (RS)-S-[4-({5-bromo-4-[(1R,2R)-(2-hydroxy-1-methylpropyl)amino]pyrimidin-2-yl}amino)-2-methylphenyl]-N-(ethoxycarbonyl)-S-methyl sulfoximide], the IC50 in data set [1] stood at 0.12 µM; in data set [2], 0.06 µM; in data set [3], 0.13 µM; with MaTu-ADR it was 0.4 µM; against CDK2/CycE, 0.078 µM; against CDK1/CycB, 0.075 µM. In addition, the IC50 in data set [4] stood at 0.059 µM.
The compound `CCC(Sc1nc(Nc2ccc(S(C)(=N)=O)cc2)ncc1Br)C(C)=O` (racemic) (as salt: sodium) [Example 3.3, (RS)-S-[4-({4-[(RS)-(1-acetylpropyl)sulfanyl]-5-bromopyrimidin-2-yl}amino)phenyl]-S-methyl sulfoximide] registered a melting point of 192 to 194 °C.
For the compound `C[C@@H](O)[C@@H](C)Nc1nc(Nc2ccc(S(=O)(CCO)=NS(=O)(=O)CC[Si](C)(C)C)cc2)ncc1Br` (mixture of isomers) [Example 1.16, (RS)-S-[4-({5-Bromo-4-[(1R,2R)-(2-hydroxy-1-methyl-propyl)amino]pyrimidin-2-yl}amino)phenyl]-S-(2-hydroxyethyl)-N-[2-(trimethylsilyl)ethylsulfonyl]sulfoximide], the IC50 in data set [1] is 0.18 µM; in data set [2] it was 0.2 µM; in data set [3], 0.19 µM; in the data set with MaTu-ADR it was 4 µM; against CDK2/CycE it was 0.13 µM; against CDK1/CycB, 0.17 µM. The IC50 in data set [4] worked out at 0.13 µM.
`C[C@@H](O)[C@@H](C)Oc1nc(Nc2ccc(S(=O)(CCO)=NS(=O)(=O)CC[Si](C)(C)C)cc2)ncc1Br` (mixture of isomers) [Example 1.20, (RS)-S-[4-({5-bromo-4-[(1R,2R)-2-hydroxy-1-methyl-propoxy]pyrimidin-2-yl}amino)phenyl]-S-(2-hydroxyethyl)-N-[2-(trimethylsilyl)ethylsulfonyl]sulfoximide]: the IC50 was 0.2 µM in data set [1]; 0.4 µM in data set [2]; 0.4 µM in data set [3]; 2.1 µM with MaTu-ADR; 0.054 µM against CDK2/CycE; 0.16 µM on CDK1/CycB. Also, the IC50 in data set [4] was determined as 0.82 µM.
Consider `C[C@@H](Nc1nc(Nc2ccc(S(=O)(=NS(=O)(=O)CC[Si](C)(C)C)C3CCCC3)cc2)ncc1Br)C(C)(C)O` (mixture of isomers) [Example 1.10, (RS)-S-[4-({5-bromo-4-[(R)-(2-hydroxy-1,2-dimethylpropyl)amino]pyrimidin-2-yl}amino)phenyl]-S-cyclopentyl-N-[2-(trimethylsilyl)ethylsulfonyl]sulfoximide] [listing 2 of 2 here], for which the IC50 in data set [1] is 0.5 µM; in data set [2], 0.7 µM; in data set [3], 0.8 µM; in the data set on MaTu-ADR, 0.8 µM; against CDK2/CycE, greater than 1 µM; at CDK1/CycB it was greater than 1 µM. Besides, in data set [4], the IC50 amounted to 0.91 µM.
